The text below walks through data of US8410056B2, “Pro-oxidant anti-cancer compounds” (priority 2006, dated 2013).

Data set [1] relates to MDA-MB-453, MCF-7 and NeuTL breast cancer cells. In words: ATP bioluminescence assay. The data set is classed as cell-based, human; murine. The following applies: 6 or 24 h; normoxia or hypoxia. The protocol: (§1) Cell culture and treatment. […] Cells were cultured in DMEM with 10% FCS, 100 U/ml penicillin and 100 μg/ml streptomycin at 37° C. in a humidified atmosphere of 5% CO2. Mitochondrial complex I-deficient (Breen and Scheffler 1979; DeFrancesco et al 1976; Scheffler et al 2004) and complex II-deficient cells (Albayrak et al 2003; Oostveen et al 1995) were grown in DMEM with 10% FCS, […] glucose and non-essential amino acids.
(§2) At approximately 70% confluency, cells were treated with up to 50 μM α-TOS (Sigma), up to 100 μM 3-BP (Aldrich) or 30 ng/ml of human recombinant tumor necrosis factor-related apoptosis—inducing ligand (TRAIL) (Weber et al, 2002) under normoxic or hypoxic conditions. For hypoxia, cells overlaid with nitrogen-purged medium were placed in a hypoxic chamber pre-flushed extensively with nitrogen. The hypoxic chamber with cells was then placed in the incubator as required. α-TOS was dissolved in ethanol and used such that the final ethanol concentration in cell culture medium was <0.1% (v/v). Stock solutions of 3-BP were prepared in PBS prior to use.
ATP measurement. MDA-MB-453 and NeuTL cells were seeded at 2×10^5 per ml and MCF-7 cells at 1.2×10^5 per ml into 96-well tissue culture microtitre plates and allowed to recover overnight before use. Cells were incubated for 6 or 24 h with α-TOS or 3-BP under normoxia or hypoxia as described above. ATP levels were then measured using an ATP bioluminescence assay kit HSII (Roche Applied Science) according to the manufacturer's instructions. Briefly, control or treated cells were transferred into black microtitre plates after incubation for 5 min at room temperature with the cell lysis reagent. Luciferase reagent was added and the signal detected immediately using a Fluorostar Optima plate reader (BMG Labtech). Triplicate wells were read for each condition and data evaluated using a standard calibration curve prepared with known concentrations of ATP.

Data set [2] concerns cancer cells. Put plainly: IC50, killing of cancer cells in vitro. The following applies: approximately. The data set is classed as cell-based. An excerpt: FIG. 9. […] IC50: Concentration in micromolar that is needed of a particular drug to induce 50% killing of cancer cells in vitro. −log Kd: inverse log of the particular drug's binding affinity.
In FIG. 9, the inventors analysed the correlation between the binding affinities of the vitamin E analogues for the ubiquinone site and their biological activity in causing apoptosis of cancer cells. The result indicates a direct relationship between the binding affinity to the site and their ability to kill cancer cells. The differences observed between the docking and the list of results reflects the biological accessibility of the compounds reaching the complex II target site. Thus, the IC50 reflects not only the ability of the analogues to bind to the site, but also their ability to enter across the cell membrane and gain access to the mitochondrial matrix. […] The best comparison would be made by comparing the Autodock results with an enzyme assay using purified complex II kits commercially available (MS201 COMPLEX II IMMUNOCAPTURE KIT MitoScience LLC, 1850 Millrace Drive, Suite 3A, Eugene, Oreg. 97403, USA, http://www.mitosciences.com).

For data set [3] the following is noted: cited from earlier work.
Data set [4] deals with mesothelioma. In words: Clinical study, patient with mesothelioma. The data set is classed as in vivo. The protocol: α-TOS was used to treat mesothelioma in a human cancer patient. […] The blood plasma levels were monitored and levels of α-TOS in the plasma attained 50 μM over prolonged periods during continual application. This is more than sufficient to kill the cancer cells based on in vitro analysis.
The patient was originally receiving high dose opiate medications, neuropathic pain medications, home oxygen, and was predicted to have a life expectancy of 6-8 weeks. After treatment with α-TOS, the patient no longer required analgesia or oxygen.
In December 2005, the patient started receiving transdermal delivery of α-TOS, prepared in a base cream and solubilised with dimethyl sulfoxide (DMSO).
In April 2007, therapy with α-TOS was commenced using a modified formulation mixed in a lipodermal cream (see below). […] In addition, a palpable lesion was visible growing out between the ribs and the right anterior chest wall. The patient was in very poor condition with a low ECOG- no CT scan could be performed at the time of commencing the α-TOS treatment because the patient was too moribund.
α-TOS formulation: 500 gms of Lipoderm cream plus 60 gms α-TOS compounded by the hospital pharmacy. About 30 gms of compounded mix was administered every few days, and the upper body was wrapped in plastic film (“saran wrap”) to improve absorption.

Data set [5] deals with MCF-7 cells. Put plainly: Apoptosis, annexin V-FITC method. The data set is classed as cell-based, human. The procedure:
as §1, §2
Apoptosis assessment. Apoptosis was quantified using the annexin V-FITC method, which detects phosphatidyl serine externalized in the early phases of apoptosis (Boersma et al, 1996). Briefly, cells were plated at 10^5 per well in 24-well plates and, after an overnight recuperation, treated with α-TOS or 3-BP alone or in combination. Floating and attached cells were harvested, washed with PBS, resuspended in 0.2 ml binding buffer (10 mM Hepes, 140 mM NaCl, 5 mM CaCl2, pH 7.4), incubated for 30 min at 4° C. with 2 μl annexin V-FITC (PharMingen), supplemented with 200 μl of 50 μg/ml propidium iodide (PI; Sigma), and analyzed by flow cytometry (FACScalibur, Becton Dickinson) using channel 1 for annexin V-FITC binding and channel 2 for PI staining. Cell death was quantified as the percentage of cells with increased annexin V binding and PI staining. […]

Data set [6] relates to MCF-7 tumors. In words: MCF-7 xenograft in nude mice. The following applies: 10 μmoles i.p. every 3 d. The data set is classed as in vivo.

Entries after “also recorded” stand apart in the source; their conditions may differ.

As usually defined, the IC50 is the concentration needed to halve the response being measured. Low values mean higher potency, high ones lower potency. A word on the pKa: it is the negative logarithm of the acid dissociation constant. In the case of `Cc1c(C)c2c(c(C)c1OC(=O)CCC(=O)O)CC[C@@](C)(CCC[C@H](C)CCC[C@H](C)CCCC(C)C)O2` [Compound 1, α-tocopheryl succinate], the “cellular ATP levels” value in data set [1] is “only significantly reduced cellular ATP levels when applied at the higher concentration of 50 μM”. The IC50 in data set [2] is 40 to 50 µM. Besides, the pKa in data set [3] is on record as < 6. In data set [4] (human patient, α-TOS therapy), the “clinical effect” value is reported as “worked very effectively; also recorded: shrunk dramatically”; the side effects entry was “non-toxic with no observable side-effects and was well tolerated; also recorded: no obvious side-effects from the α-TOS therapy apart from a mild itch”. The “levels of α-TOS in the plasma” value in data set [4] (human, transdermal, continual application, over prolonged periods) was 50 µM. Besides, in data set [4] (transdermal α-TOS in base cream solubilised with DMSO), the “clinical response, DMSO base cream” value is “showed clinical response”. Besides, in data set [4] (transdermal α-TOS in base cream solubilised with DMSO, about 8 weeks), the “side effects, DMSO base cream” value is reported as “major skin reaction problems secondary to DMSO”. In addition, the “apoptosis after CybL siRNA” value in data set [5] (MCF7 cells treated with siRNA against CybL) is given as “reduced the levels of apoptosis mediated by α-TOS”. In addition, in data set [5] (MCF-7 (erbB2-low), 24 h, normoxia or hypoxia), the apoptosis entry was “sensitive to apoptosis induced by α-TOS under both normoxia and hypoxia”. In addition, the tumor growth result in data set [6] was “repressed the growth of tumors in the treated group of mice with an overall reduction in tumor size”.
